We go through 1 compound from patent US20060084684A1, “Topically applicable pharmaceutical preparation” (Altana Pharma AG, priority 2002, published 2006).

A short description of data set [1]: Solubility in water. Type of data set: physicochemical. To be noted: at 21° C. An excerpt:
For treating disorders of the skin it Is desirable to provide the active pharmaceutical ingredient in a pharmaceutical preparation suitable for topical application.

The nature of data set [2]: Kinetic parameters after oral administration (comparison). Type of data set: in vivo, rat. The procedure: Comparison with kinetic parameters after oral administration of 1 mg/kg: […]

Values after ≈ are worked out from the molar mass of the structure shown.

With `O=C(Nc1c(Cl)cncc1Cl)c1ccc(OC(F)F)c(OCC2CC2)c1` [roflumilast, N-(3,5-dichloropyrid-4-yl)-3-cyclopropylmethoxy-4-difluoromethoxybenzamide], in data set [1], the solubility (commonly the concentration that dissolves in the medium under given conditions) stood at 0.53 µg/mL (≈ 1.31 µM). For the same compound, in data set [2] (oral administration), the “excretion with the urine” value was 18.4 % of the dose. Besides, in data set [2] (oral administration of 1 mg/kg), the “AUC(0-24 h)” value was 3.10 mg equiv./l×h and the Cmax is 0.225 mg equiv./l.
